Test results published in patent publication US20030003492A1, “Colorimetric nanocrystal sensors, methods of making, and use thereof” (priority 2001, published 2003).

Tests used:
[1] = Binding to simple sugars like glucosamine; settings: much lower affinity than for lipid A
Binding to lipid A = settings: binding of lipid A; read-out: dissociation constant

tetratryptophan ter-cyclopentane [TWTCP]
Kd [1]: ~20 µM | Kd (Binding to lipid A): 0.592 µM
